Assay results published in patent publication US11667658B2, “Chemical synthesis of the organoarsenical antibiotic arsinothricin” (The Florida International University Board of Trustees, priority 2021, dated 2023).

System: PpArsN1, the AST-selective N-acetyltransferase
Assay: Enzymatic N-acetylation of AST by PpArsN1 (HPLC-ICP-MS)
Format: biochemical, Pseudomonas putida KT2440
Protocol: Enzymatic N-acetylation of AST (1). PpArsN1, the AST-selective N-acetyltransferase from Pseudomonas putida KT2440, was purified. […] The reaction solution was filtered using an Amicon Ultra centrifugal filter with a 3K cutoff membrane (MilliporeSigma), and arsenic species in the filtrate were analyzed by HPLC-ICP-MS.

Row | Structure (SMILES) | conversion to L-N-Ac-AST by PpArsN1 (in words) (PpArsN1/AcCoA, HPLC-ICP-MS (FIG. 23)) | conversion to L-N-Ac-AST by PpArsN1 (10 μM AST, 0.2 μM PpArsN1, 0.2 mM AcCoA, 37° C., 30 min (FIG. 23)) [%]
1 | C[As](=O)(O)CCC(N)C(=O)O (centres unmarked) [bAST] | nearly completely converted | –
2 | C[As](=O)(O)CCC(N)C(=O)O (centres unmarked) [sAST] | – | 50
